For test [1], the system named is M. tuberculosis 27294 (a streptomycin sensitive strain, ATCC). The test is described as follows: BACTEC-460 growth inhibition (growth index, 14CO2). The note with it: positive control, 50 μg/ml. It is filed as cell-based, Mycobacterium tuberculosis.
The subject of another test is M. smegmatis 607 (ATCC). Nature of the test: agar-disk diffusion assay, zone of inhibition. In kind it is cell-based, Mycobacterium smegmatis. The note with it: HPLC fractions of methylene chloride extract; 6 mm disc; control 10 micrograms streptomycin. (In general: A growth-free zone around the sample is the usual read-out of agar diffusion tests.)
The test system of another test is E-Coli 25922. Nature of the test: zone of inhibition against E. coli. The note with it: HPLC fractions of methylene chloride extract; 6 mm disc; control 10 micrograms streptomycin. In kind it is cell-based, Escherichia coli. The procedure: An HPLC separation and isolation of an active fraction was attempted. High Pressure Liquid Chromatography (HPLC) was performed using a Discovery RP-Amide C-16 Column, 15 cm long, 4.6 mm wide (Supelco, Bellefort, Pa.). An isocratic, i.e. steady concentration, of a polar solvent phase was used. The solvent phase consisted of dilute phosphoric acid in methanol. The flow rate was 2 ml/minute. Therefore exit is dependent on MW (larger MW exists later) and polarity. The more polar the compound, the quicker it solubilizes into the solvent, but it is retained longer in the static phase of the column which holds back the more polar compounds. The fractions were monitored by UV, at 254 nm wave-length. One to three fraction per plant extract were collected at the indicated times. […] See, for example, FIGS. 1-3. Based on consideration of the relative polarity and molecular weights of the compounds identified for the respective plants in the total methylene chloride extract, the compounds in the right-most column of table 5 “Additional Compounds” lists compounds which are not observed in the active fraction of the extract of the respective plants, but which are likely to be present in smaller quantities (“trace amounts”) in the active fraction and which might contribute to the anti-mycobacterial activity.

For the molecule `[H]/N=C(/N)N[C@H]1[C@H](O)[C@@H](O)[C@H](O[C@@H]2O[C@@H](C)[C@](O)(C=O)[C@H]2O[C@@H]2O[C@@H](CO)[C@H](O)[C@@H](O)[C@@H]2NC)[C@@H](N/C(N)=N\[H])[C@@H]1O` [Streptomycin], the “Δ G1 (growth index change)” value in test [1] is given as “Positive control Streptomycin (50 μg/ml) resulting in a Δ G1 of −2.8”. Besides, in the test on M. smegmatis 607 (ATCC), the “M. Smegmatis ATCC 607 ZOI (mm)” value stood at 17 mm. Besides, the “E-Coli 25922 ZOI (mm)” value in the test with E-Coli 25922 was found to be 14 mm.

Source of the values: patent US7641919B2, “Anti-bacterial plant compositions” (priority 2001, dated 2010).
